The test system of series [1] is human proximal tubular cells (PTCs). To be noted: cited from earlier work.
The next series deals with human kidney. The note with it: cited from earlier work.
In another series the test system is liver. To be noted: in vivo; cited from earlier work.
Another series relates to HK-2 cells. To be noted: previously observed (Wu et al.); cited from earlier work.
The subject of a further series is lung. To be noted: cited from earlier work.
Series [2] concerns histone H2AX phosphorylated on serine 139 (γH2AX). It is filed as cell-based, human.
The next series relates to primary PTCs. To be noted: 1000 μg/mL.
[3] abbreviates: known in vivo group, Toxic / Non-toxic.
Setting [4] is: known human kidney toxicity flag 1/0.

Entries after “also recorded” stand apart in the source; their conditions may differ. Where a name gives a salt, the structure may show the parent alone. Read-outs that look alike come from different tables or passages of the source.

Turning to `O=c1[nH]cc(F)c(=O)[nH]1` [5-Fluorouracil], in series [1] (human, in vivo), the “PTC Toxicity” value is “Toxic” and the PTC-toxic is 1. In addition, in the series with human kidney (in vivo), the Nephrotoxic is recorded as 1. Also, in the series on liver, the Hepatotoxic was 1. The apoptotic responses result in the series on HK-2 cells is listed as “lack of apoptotic responses”.
As for `[Cd+2].[Cl-].[Cl-]` [Cadmium(II) chloride], the “PTC Toxicity” value in series [1] (setting [3]) is listed as “Toxic”. The PTC-toxic in series [1] (known toxicity flag 1/0) is reported as 1. Besides, the Nephrotoxic in the series on human kidney (setting [4]) is 1. Besides, the Hepatotoxic in the series with liver is 1. Besides, the Pulmonotoxic in the series with lung (known toxicity flag 1/0) is 1.
`N.N.[Cl][Pt][Cl]` [Cisplatin]: the “change in γH2AX levels” value in series [2] is recorded as “increasing levels”.
Take `OCCO` [Ethylene glycol]: in series [1] (human, in vivo), the “PTC Toxicity” value is “Non-toxic” and the PTC-toxic is recorded as 0. In the series with human kidney (in vivo), the Nephrotoxic was 1. Moreover, the Hepatotoxic with liver is 0. For the same molecule, the Pulmonotoxic in the series with lung (human, in vivo) is on record as 0.
Take `CCC[C@@H]1C[C@@H](C(=O)N[C@@H]([C@H]2O[C@H](SC)[C@H](O)[C@@H](O)[C@H]2O)[C@@H](C)O)N(C)C1` [Lincomycin]: the “change in γH2AX levels” value in series [2] is on record as “small or no change”. In series [1] (human, in vivo), the “PTC Toxicity” value was “Non-toxic” and the PTC-toxic is given as 0. In the series on human kidney (in vivo), the Nephrotoxic is 1. For the same molecule, in the series on liver, the Hepatotoxic is recorded as 0.
In the case of `[Cl-].[Li+]` [Lithium chloride], the “change in γH2AX levels” value in series [2] is listed as “small or no change”. Moreover, in series [1] (human, in vivo), the “PTC Toxicity” value was “Non-toxic” and the PTC-toxic was 0. Also, the Nephrotoxic in the series with human kidney (in vivo) is recorded as 1. In addition, in the series on liver, the Hepatotoxic is 0. Besides, in the series with lung (human, in vivo), the Pulmonotoxic is on record as 0.
Take `C[C@@H]1[C@H](O)[C@@H](C)/C=C/C=C/CC/C=C/C=C/C=C/C=C/C(O[C@H]2O[C@H](C)[C@@H](O)[C@H](N)[C@@H]2O)CC2O[C@](O)(CC(O)C(O)CCC(O)CC(O)CC(O)CC(=O)O[C@H]1C)CC(O)C2C(=O)O` (stereo partly shown) [Nystatin]: the Pulmonotoxic with lung (human, in vivo) is reported as 0.
For the molecule `C[C@@H]1Cc2c(Cl)cc(C(=O)N[C@@H](Cc3ccccc3)C(=O)O)c(O)c2C(=O)O1` [Ochratoxin A], the “change in γH2AX levels” value in series [2] (HPTC-B results) is “increasing levels; also recorded: large increase”. The “cells with increased annexin-V levels” value in the series with primary PTCs (16 hours) was approximately 25%. Also, in the series with primary PTCs (within the measured period (16 hours)), the “increase in cell death rates” value is “very small or no increase”. Besides, the “PTC Toxicity” value in series [1] (setting [3]) was “Toxic”. For the same molecule, the PTC-toxic in series [1] (known toxicity flag 1/0) is recorded as 1. For the same molecule, the Nephrotoxic with human kidney (setting [4]) is reported as 1. For the same molecule, the Hepatotoxic in the series on liver is listed as 0.
As to `C[n+]1ccc(-c2cc[n+](C)cc2)cc1` [Paraquat], in series [1] (human, in vivo), the “PTC Toxicity” value is listed as “Toxic” and the PTC-toxic was 1. Also, the Nephrotoxic in the series on human kidney (in vivo) was 1. Besides, in the series with liver, the Hepatotoxic is on record as 1. In the series on lung (human, in vivo), the Pulmonotoxic is on record as 1.
As for `NC(=O)c1ncn([C@@H]2O[C@H](CO)[C@@H](O)[C@H]2O)n1` [Ribavirin], the “change in γH2AX levels” value in series [2] is listed as “small or no change”. In series [1] (human, in vivo), the “PTC Toxicity” value is on record as “Non-toxic” and the PTC-toxic was 0. Further, the Nephrotoxic with human kidney (in vivo) is recorded as 0. Moreover, the Hepatotoxic in the series on liver is listed as 0.
With `[Cl-].[Na+]` [Sodium chloride], the Pulmonotoxic in the series with lung (human, in vivo) is 0.
Turning to `C[C@H](Cn1cnc2c(N)ncnc21)OCP(=O)(O)O` [Tenofovir], in series [1] (human, in vivo), the “PTC Toxicity” value is “Toxic” and the PTC-toxic was 1. The Nephrotoxic with human kidney (in vivo) is listed as 1. Also, in the series with liver, the Hepatotoxic is on record as 0. Further, in the series with lung (human, in vivo), the Pulmonotoxic was 0.
Turning to `CN1COCN(Cc2cnc(Cl)s2)/C1=N\[N+](=O)[O-]` [Thiamethoxam], the Pulmonotoxic in the series with lung (human, in vivo) is reported as 0.
Regarding `OCCOCCOCCO` [Triethylene glycol], the Pulmonotoxic in the series on lung (human, in vivo) is reported as 0.
On to `CN[C@H](CC(C)C)C(=O)N[C@H]1C(=O)N[C@@H](CC(N)=O)C(=O)N[C@H]2C(=O)N[C@H]3C(=O)N[C@H](C(=O)N[C@H](C(=O)O)c4cc(O)cc(O)c4-c4cc3ccc4O)[C@H](O)c3ccc(c(Cl)c3)Oc3cc2cc(c3O[C@@H]2O[C@H](CO)[C@@H](O)[C@H](O)[C@H]2O[C@H]2C[C@](C)(N)[C@H](O)[C@H](C)O2)Oc2ccc(cc2Cl)[C@H]1O` [Vancomycin hydrochloride], for which the Pulmonotoxic with lung (human, in vivo) is 0.
Regarding `C=C(Cl)Cl` [Vinylidene chloride], the Pulmonotoxic in the series with lung (human, in vivo) is 0.
With `Nc1ccc(N)cc1` [p-Phenylenediamine], the Pulmonotoxic in the series with lung (human, in vivo) is listed as 1.
Turning to `C=CC(=C)CCC=C(C)C` [β-Myrcene], the Pulmonotoxic in the series on lung (human, in vivo) is 0.
With Bleomycin sulfate, the Pulmonotoxic with lung (human, in vivo) was 1.
As to Gentamicin, in series [1] (human, in vivo), the “PTC Toxicity” value is listed as “Toxic” and the PTC-toxic is 1. In the series on human kidney (in vivo), the Nephrotoxic is 1. For the same molecule, the Hepatotoxic with liver is listed as 0. The apoptotic responses result with HK-2 cells is “lack of apoptotic responses”.
Consider Hydroxypropyl-β-cyclodextrin, for which the Pulmonotoxic in the series on lung (human, in vivo) was 0.

The record behind these values is patent US20200309767A1, “HIGH-THROUGHPUT IMAGING-BASED METHODS FOR PREDICTING CELL-TYPE-SPECIFIC TOXICITY OF XENOBIOTICS WITH DIVERSE CHEMICAL STRUCTURES” (priority 2015, published 2020).
